≈ marks a conversion by molar mass, not a printed value.
Columns and labels:
[1] = molecular target: human coagulation factor VIIa (Homo sapiens (Human), UniProt P08709); assay: Determination of inhibition of factor VIIa; format: biochemical
Description: Enzyme: human coagulation factor VIIa; manufacturer: Haematologic Technologies;
Substrate: Boc-VPR-AMC; R&D System;
Tissue factor: tissue factor F3; manufacturer: Sino Biological;
The test compounds were dissolved in assay buffer (50 mM Hepes, 150 mM NaCl, 5 mM CaCl2, pH 7.4) at a final concentration of 10 μM and 1 μM. Coagulation factor VIIa and tissue factor were mixed at an equimolar concentration. After incubation at 37° C. for 15 minutes, the test compound was further added. Incubation was conducted at room temperature for 10 minutes. Then the substrate (Boc-VPR-AMC) was added to initiate the reaction. For reading fluorescence signal value, enzyme kinetic mode was used. The wavelength of excitation light was 380 nm, and the wavelength of emission light was 460 nm. The IC50 was calculated in a similar manner to experimental Example 1.

[2] = tested on: SD rats; assay: Single dose toxicity study in SD rats, intravenous infusion; conditions: 50, 75, 100, 150, 200 mg/kg, intravenous infusion (2 ml/min)
Description: (§2) The clinical observation was carried out for 7 days after a single dose, and the body weight of the animals were measured. On the 8th day, blood samples were taken after anesthesia for detection of hematology, blood biochemistry, coagulation and other indicators. Observation was also conducted by gross anatomy.

[3] = in vivo; conditions: SD, rat, iv
Description: as §2

[4] = Solubility test in pH 7.4 buffer; format: physicochemical; conditions: buffer (pH 7.4), aqueous buffer, thermodynamic from solid, 25° C.
Description: The test compound was dissolved in a buffer (pH 7.4) at room temperature until the solution reached supersaturation. The solution was shaken at 25° C. by a constant temperature mixer for 4 hours, filtered through a 0.45 μm aqueous membrane filter, and the concentration was measured by UPLC. 1 mg of the test compound was accurately weighed, and dissolved in 10 mL volumetric flask as the reference substance. The reference substance was measured using the same process. The solubility of the test compound was calculated according to external standard process, and the results are shown in table 4.

[5] = tested on: rabbit plasma; assay: Effect on coagulation in vitro (aPTT and PT), rabbit plasma; conditions: final concentration 10NM (so in the source), n = 3
Description: aPTT reagent (purchased from Sysmex);
PT reagent (purchased from Sysmex);
The coagulation pathway includes the extrinsic coagulation pathway and the intrinsic coagulation pathway. The parameter associated with the extrinsic coagulation pathway is prothrombin time, expressed as PT; the parameter associated with the intrinsic coagulation pathway is activated partial thromboplatin time, expressed as aPTT.
After anticoagulation, blood of different species (rabbit, human) was subjected to centrifugation. The upper layer of plasma was collected and divided into several aliquots. The test compounds were added to make the final concentration of test compound to be 10NM. Incubation was conducted at 37° C. after mixed thoroughly. Then the samples were put into a coagulation analyzer (Sysmex CA1500, Sysmex, Japan) for the aPTT and PT assays. Blank plasma (without test compound) was used as a reference, and the ratio values of aPTT and PT of all samples and blank plasmas were analyzed, the results are shown in table 3.

[6] = Blood exposure after intravenous administration in various animal species (summary); format: in vivo; conditions: rat, rabbit, dog
Description: (§1) Pharmacokinetics characteristics were examined by administering compound of the present disclosure and the reference compound (BMS-962212) to male SD rats through intravenous injection (IV). Blood was collected at various time points after administration. The blood was anticoagulated with EDTA-K2. Plasma samples were obtained by centrifugation within 30 min after blood collection, and retained at −80° C. The plasma samples were processed to precipitate the proteins and then analyzed by LC-MS/MS.
as §1, with “properties” for “characteristics”, “rabbits” for “SD rats”, “centrifugation,” for “centrifugation within 30 min after blood collection,”
as §1, with “properties” for “characteristics”, “Beagle dog” for “male SD rats”, “Plasma samples were obtained by centrifugation within 30 min after blood collection, and retained at −80° C.” left out

[7] = molecular target: human coagulation factor XIa (Homo sapiens (Human), UniProt P03951); assay: Inhibition of coagulation factor XIa (fluorogenic substrate, enzyme kinetic mode); format: biochemical
Sequence of human coagulation factor XIa (P03951 388-625): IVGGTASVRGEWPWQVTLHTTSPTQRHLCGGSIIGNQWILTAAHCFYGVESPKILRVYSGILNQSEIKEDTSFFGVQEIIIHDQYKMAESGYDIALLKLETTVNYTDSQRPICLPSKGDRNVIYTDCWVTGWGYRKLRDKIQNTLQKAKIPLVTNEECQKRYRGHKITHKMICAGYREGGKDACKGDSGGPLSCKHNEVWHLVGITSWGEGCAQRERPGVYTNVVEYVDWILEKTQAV
Sequence of human coagulation factor XIa (P03951 19-387): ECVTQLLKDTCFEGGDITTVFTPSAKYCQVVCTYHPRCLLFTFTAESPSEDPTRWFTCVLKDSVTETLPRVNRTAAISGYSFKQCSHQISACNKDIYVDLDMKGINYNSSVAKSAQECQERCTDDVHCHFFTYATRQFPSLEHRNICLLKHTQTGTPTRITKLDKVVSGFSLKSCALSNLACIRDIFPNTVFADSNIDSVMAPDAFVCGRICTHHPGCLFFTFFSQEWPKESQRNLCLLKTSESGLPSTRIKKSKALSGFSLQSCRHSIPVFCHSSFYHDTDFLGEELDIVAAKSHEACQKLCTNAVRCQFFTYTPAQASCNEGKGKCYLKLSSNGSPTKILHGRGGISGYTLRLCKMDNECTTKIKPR
Description: The following procedures can be used to determine the in vitro inhibition of human coagulation factor XIa by the compound of the present disclosure, as indicated by IC50.
Enzyme: human coagulation factor XIa; manufacturer: Haemtech;
Substrate: Boc-Ile-Glu-Gly-Arg-AMC Acetate salt; manufacturer: Bachem;
Reaction buffer: 50 mM HEPES, 145 mM NaCl, 5 mM KCl, 0.1% BSA, pH 7.4;
The test compounds were dissolved in reaction buffer at different concentrations. 4 μl of coagulation factor XIa and 4 μl of the test compound were added to a 384 well plate, incubated at room temperature for 10 minutes after mixed thoroughly, and then 4 μl of substrate was added to initiate the reaction. For reading fluorescence signal value, enzyme kinetic mode was used. The wavelength of excitation light was selected to be 380 nm, and the wavelength of emission light was selected to be 460 nm. Read once per 30 seconds, and continuously read 20 cycles. Linear regression analysis of signal value-time was performed during the linear reaction period, and the slope was the reaction rate, and the enzyme activity inhibition rate was calculated according to the following formula. The half inhibitory concentration IC50 values of the compound were fitted using GraphPad Prism 5 software, and results are shown in Table 1. Inhibition rate %=(V0−Vi)/(V0−Vblank)×100.
In the formula: V0 is the reaction rate of the control well (using the same volume of reaction buffer without adding test compound), Vi is the reaction rate of test compound, Vblank is a blank well (using the same volume of reaction buffer without adding either enzyme or test compound).

[8] = Repeated dose toxicity study in SD rats, intravenous infusion, daily for 14 days; format: in vivo; conditions: rat, in vivo, daily for 14 days, SD rats, read-out: No-observed-adverse-effect level (NOAEL)
Description: The administration was repeated daily for 14 days, while clinical observation, body weight and food intake were recorded. […] Observation by gross anatomy and examination of histopathology were also conducted.

[9] = Pharmacokinetics study in Beagle dogs, intravenous injection; format: in vivo, Beagle dog
Description: as §1, with “properties” for “characteristics”, “Beagle dog” for “male SD rats”, “centrifugation,” for “centrifugation within 30 min after blood collection,”
The pharmacokinetic parameters were calculated using WinNonlin 6.3 software by employing a non-compartmental model.

Sequence of human coagulation factor VIIa (P08709 whole entry, looked up): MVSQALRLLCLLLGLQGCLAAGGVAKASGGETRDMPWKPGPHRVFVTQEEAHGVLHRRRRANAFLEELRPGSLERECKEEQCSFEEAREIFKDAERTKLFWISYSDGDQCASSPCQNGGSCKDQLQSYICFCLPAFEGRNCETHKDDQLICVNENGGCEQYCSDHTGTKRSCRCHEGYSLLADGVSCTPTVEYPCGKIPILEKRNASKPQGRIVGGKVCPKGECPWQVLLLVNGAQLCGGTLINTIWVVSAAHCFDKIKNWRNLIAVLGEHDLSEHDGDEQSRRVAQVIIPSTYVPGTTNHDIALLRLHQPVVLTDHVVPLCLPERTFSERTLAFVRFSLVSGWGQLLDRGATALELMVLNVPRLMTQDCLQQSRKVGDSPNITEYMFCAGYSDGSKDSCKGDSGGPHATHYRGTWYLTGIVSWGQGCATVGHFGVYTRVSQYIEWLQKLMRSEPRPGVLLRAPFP
Sequence of human coagulation factor VIIa (P08709 whole entry, looked up): as above
Sequence of human coagulation factor VIIa (P13726 whole entry partner, looked up): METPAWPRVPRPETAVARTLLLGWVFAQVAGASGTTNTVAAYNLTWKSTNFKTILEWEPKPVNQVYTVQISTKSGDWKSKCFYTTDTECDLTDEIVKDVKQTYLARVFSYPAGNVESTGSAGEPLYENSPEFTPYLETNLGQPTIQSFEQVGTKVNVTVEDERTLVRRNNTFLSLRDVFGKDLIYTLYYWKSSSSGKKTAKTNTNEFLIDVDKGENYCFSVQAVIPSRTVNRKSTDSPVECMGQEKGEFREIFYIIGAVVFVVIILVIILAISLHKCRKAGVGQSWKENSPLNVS

N[C@@H](CCCCNC(=O)CN1CC=C(c2cccc3c2CCN(C(=O)[C@H]2CC(c4cccc(Cl)c4F)=NO2)[C@@H]3C(=O)Nc2ccc(C(=O)O)cc2)CC1)C(=O)O [Example 5, 4-((S)-5-(1-(2-(((S)-5-amino-5-carboxypentyl)amino)-2-oxoethyl)-1,2,3,6-tetrahydropyridin-4-yl)-2-((R)-3-(3-chloro-2-fluorophenyl)-4,5-dihydroisoxazole-5-carbonyl)-1,2,3,4-tetrahydroisoquinoline-1-carboxamido)benzoic acid]
inhibitory effect on coagulation factor VIIa (in words) [1]: no significant inhibitory effect | IC50 ([1]; tested at final concentration of 10 μM and 1 μM, with tissue factor): > 10000 nM | Single dose toxicity study in SD rats: observation [2]: No abnormality was found | MTD at 7 days [3]: ≥ 200 mg/kg | solubility at 4 h [4]: 10.8 mg/mL (≈ 13.7 mM) | Ratio of PT to that of blank plasma [5]: 1.00 | Ratio of aPTT to that of blank plasma [5]: 1.84 | exposure in blood relative to that of BMS-962212 [6]: 3-25 times | IC50 [7]: 0.16 ± 0.02 nM | NOAEL at 14 days [8]: 60 mg/kg | AUClast relative to that of the reference compound ([9]; 0.5 mg/kg each): 20.38 times | Cmax relative to that of the reference compound ([9]; 0.5 mg/kg each): 2.67 times | T1/2 relative to that of the reference compound ([9]; 0.5 mg/kg each): 7.25 times | AUC(0-inf) ([9]; dog, plasma, 0.5 mg/kg): 18100 ± 683 ng·h/mL | AUC(0-t) ([9]; dog, plasma, 0.5 mg/kg): 17200 ± 370 ng·h/mL | Cmax ([9]; dog, plasma, 0.5 mg/kg): 3950 ± 808 ng/mL | Vd ([9]; dog, plasma, 0.5 mg/kg): 0.24 ± 0.02 L/kg | clearance ([9]; dog, plasma, 0.5 mg/kg): 0.46 ± 0.02 mL/min/kg | half-life ([9]; dog, plasma, 0.5 mg/kg): 6.02 ± 0.8 h | apparent volume of distribution as share of that of the reference compound ([9]; same dosage 0.5 mg/kg): 34%

— US11541049B2, “Tetrahydroisoquinoline derivatives, preparation process and use thereof” (SICHUAN KELUN-BIOTECH BIOPHARMACEUTICAL CO., LTD., priority 2018, dated 2023)
